Data: patent US5158952A, “3-[2-[4-(6-fluoro-1,2-benzisoxozol-3-yl)-1-piperidinyl]ethyl]-6,7,8,9 tetrahydro-9-hydroxy-2-methyl-4H-pyrido [1,2-a]pyrimidin-4-one, compositions and method of use” (Janssen Pharmaceutica N.V., priority 1989, dated 1992)

Experiments:
Format in all cases: in vivo
[1] = tested on: serotonin; assay: combined APO, TRY, NOR test in rats: tryptamine hyperaemia (peripheral); conditions: for ED50: Rattus norvegicus
From the text: (§1) The antipsychotic activity of the subject compounds is evidenced by the experimental data obtained in at least one of two different test procedures, viz. the combined apomorphine (APO), tryptamine (TRY) and norepinephrine (NOR) test in rats, and the apomorphine test in dogs. Said combined apomorphine, tryptamine and norepinephrine test is described in Ach. int. Pharmacodyn., 227, 238-253 (1977) and provides an empirical evaluation of the relative specificity with which drugs may effect particular neurotransmitter systems centrally (CNS) as well as peripherally. […] Said apomorphine test in dogs is described in Arzneim.-Forsch. (Drug Res.), 9, 765-767 (1959) and provides a measure of the duration of action of the tested compounds.

[2] = tested on: norepinephrine; assay: combined APO, TRY, NOR test in rats: norepinephrine; conditions: for ED50: Rattus norvegicus
From the text: as §1

[3] = tested on: dopamine; assay: combined apomorphine (APO), tryptamine (TRY) and norepinephrine (NOR) test in rats: apomorphine; conditions: for ED50: Rattus norvegicus
From the text: as §1

[4] = tested on: dopamine; assay: apomorphine test in dogs (duration of action); conditions: for (APO)-dog test, ED50, 4 hr: 240 min; for (APO)-dog test, ED50, 16 hr: 960 min; for ED50: Canis lupus familiaris
From the text: The compounds of formula (I) show the additional advantage of being eliminated rather slowly from the body and thus of being long acting. This can be evidenced, for example, by measuring the plasma levels after oral administration to dogs and by the long acting antiemetic effect exerted by the present compounds on dogs challenged with the dopamine agonist apomorphine. Especially the compounds of formula (I) wherein R^3 is a higher alkylcarbonyloxy radical have a long duration of action. […] Consequently, the present compounds allow for a more efficient therapy: the slow elimination facilitates maintaining a stable plasma concentration at a non-toxic, effective level and the reduction in the number of administrations may be expected to result in better compliance of the subject to be treated with the prescribed medication.
as §1

[5] = tested on: serotonin; assay: combined APO, TRY, NOR test in rats: tryptamine convulsions (central); conditions: for ED50: Rattus norvegicus
From the text: as §1

[6] = 1 h, read-out: (APO)-dog test, ED50, 1 hr

| Structure (SMILES) | (TRY)-hyperaemia ED50 [1] | ED50 [2] | ED50 [3] | (APO)-dog test, ED50, 4 hr [4] | (APO)-dog test, ED50, 16 hr [4] | ED50 [4, 6] | (TRY)-convulsions ED50 [5] | (NOR) ED50 [2] | (APO) ED50 [3] | (APO)-dog test, ED50, 1 hr ([4]; 1 hr, 60 min) | ED50 [1] | ED50 ([4]; 4 h, read-out: (APO)-dog test, ED50, 4 hr) | ED50 ([4]; 16 h, read-out: (APO)-dog test, ED50, 16 hr) | ED50 [5] |
| --- | --- | --- | --- | --- | --- | --- | --- | --- | --- | --- | --- | --- | --- | --- |
| Cc1nc2n(c(=O)c1CCN1CCC(c3noc4cc(F)ccc34)CC1)CCCC2O (single isomer, unassigned; (+)) [Compound 2, (+)-3-[2-[4-(6-fluoro-1,2-benzisoxazol-3-yl)-1-piperidinyl]ethyl]-6,7,8,9-tetrahydro-9-hydroxy-2-methyl-4H-pyrido[1,2-a]-pyrimidin-4-one] | 0.00031 mg/kg | 1.25 mg/kg | 0.31 mg/kg | 0.03 mg/kg | 0.06 mg/kg | 0.015 mg/kg | 0.08 mg/kg | – | – | – | – | – | – | – |
| Cc1nc2n(c(=O)c1CCN1CCC(c3noc4cc(F)ccc34)CC1)CCCC2O (single isomer, unassigned; (-)) [Compound 3, (-)-3-[2-[4-(6-fluoro-1,2-benzisoxazol-3-yl)-1-piperidinyl]-ethyl]-6,7,8,9-tetrahydro-9-hydroxy-2-methyl-4H-pyrido[1,2-a]-pyrimidin-4-one] | 0.00063 mg/kg | – | – | 0.007 mg/kg | 0.015 mg/kg | – | 0.31 mg/kg | 0.63 mg/kg | 0.31 mg/kg | 0.008 mg/kg | – | – | – | – |
| Cc1nc2n(c(=O)c1CCN1CCC(c3noc4cc(F)ccc34)CC1)CCCC2O (stereo not drawn) [Compound 1, 3-[2-[4-(6-fluoro-1,2-benzisoxazol-3-yl)-1-piperidinyl]ethyl]-6,7,8,9-tetrahydro-9-hydroxy-2-methyl-4H-pyrido[1,2-a]pyrimidin4-one] | – | 0.08 mg/kg | 0.25 mg/kg | – | – | 0.015 mg/kg | – | – | – | – | 0.002 mg/kg | 0.015 mg/kg | 0.015 mg/kg | 0.31 mg/kg |
| CC(=O)OC1CCCn2c1nc(C)c(CCN1CCC(c3noc4cc(F)ccc34)CC1)c2=O (stereo not drawn) [Compound 4, 3-[2-[4-(6-fluoro-1,2-benzisoxazol-3-yl)-1-piperidinyl]ethyl]-6,7,8,9-tetrahydro-2-methyl-4-oxo-4H-pyrido[1,2-a]pyrimidin-9-ol acetate(ester)] | – | – | 0.31 mg/kg | – | – | 0.015 mg/kg | – | – | – | – | 0.00031 mg/kg | – | – | 0.08 mg/kg |
| CCCC(=O)OC1CCCn2c1nc(C)c(CCN1CCC(c3noc4cc(F)ccc34)CC1)c2=O (stereo not drawn) [Compound 5, [3-[2-[4-(6-fluoro-1,2-benzisoxazol-3-yl)-1-piperidinyl]ethyl]-6,7,8,9-tetrahydro-2-methyl-4-oxo-4H-pyrido[1,2-a]pyrimidin-9-yl]butanoate] | – | 0.16 mg/kg | 0.31 mg/kg | – | – | 0.008 mg/kg | – | – | – | – | 0.00125 mg/kg | – | – | 0.31 mg/kg |
